Source: PubChem BioAssay AID1996
In brackets after ≈: the same amount, converted by molar mass.

Conditions: buffer; pH 7.4; 200.0 µM

Structure (SMILES)	solubility kinetic [µg/mL]
CC(C)CNP(=S)(c1ccccc1)C(C)(C)C (centres undefined)	1.7 (≈ 6.31 µM)
S=c1nc(-c2ccccc2)n(Cc2cccnc2)c2c1CCCC2	> 50
COc1ccc(-c2c(C)nc(N)nc2-c2ccc(OC)cc2O)cc1	7.4 (≈ 21.9 µM)
CC(C)N1CC(C(=O)Nc2cccc([N+](=O)[O-])c2)CC1=O (centres undefined)	> 43.7
O=C(Nc1cccc([N+](=O)[O-])c1)Nc1cccs1	32.3 (≈ 123 µM)
COc1ccc(C(=O)OCC(=O)N2C(C)CCCC2C)cc1S(=O)(=O)N1CCOCC1 (centres undefined)	> 68.2
Oc1ccccc1C=NCCN=Cc1ccccc1O	27.6 (≈ 103 µM)
COC(=O)c1cccc(NC(=O)c2ccc[n+]([O-])c2)c1	> 40.8
Cc1noc(C)c1S(=O)(=O)Nc1ccccc1N1CCOCC1	> 50.6
OC(CNCc1cccs1)c1ccccc1 (centres undefined)	> 35
Cc1ccc(S(=O)(=O)NCCc2nc3ccccc3[nH]2)cc1	36.3 (≈ 115 µM)
Cc1ccc(SCC(=O)c2c(C)nc3ccccn23)cc1	2.6 (≈ 8.77 µM)
Cc1ccc(S(=O)(=O)N2CCCCC2)cc1NC(=O)CCNC(=O)c1ccccc1	9.4 (≈ 21.9 µM)
Cc1ccc(OCC(=O)NCCCNC(=O)c2ccc(C)nc2)cc1	> 51.2
Cc1ccc(N2CCN(S(=O)(=O)c3ccc(C)cc3)CC2)cc1	< 0.4
CCCN(CC1CC1)CC(O)c1ccccc1.O=C(O)C(=O)O (centres undefined)	> 48.5
CC(C)NC(=O)N(Cc1ccc(Cl)cc1)Cc1cccs1	37 (≈ 115 µM)
CCCCn1c(O)c(/C=C2\C=Nc3ccccc32)c(=O)[nH]c1=O	3.1 (≈ 9.96 µM)
COc1ccccc1C(=O)NCc1ccccn1	> 36.3
O=C(/C=C/c1ccccc1)OCCN1C(=O)c2ccccc2C1=O	< 0.7

Structure (SMILES)	solubility kinetic [µg/mL]
O=C(COC(=O)C1(c2ccccc2)CCCC1)N1CCNC1=O	> 47.5
COc1ccc(CCN(C)CCCC(C#N)(c2cc(OC)c(OC)c(OC)c2)C(C)C)cc1OC.Cl (centres undefined)	> 78.2
COCCNC(=O)/C(C#N)=C/c1cccc(OCc2ccccc2)c1	21.2 (≈ 63 µM)
COc1cccc(C(=O)OCC(=O)Nc2cc(C)on2)c1OC	> 48
CC(C)N(C)S(=O)(=O)c1ccc(Cl)c(C(=O)O)c1	> 43.8
CC(=O)NC(Cc1ccccc1)C(C)=O (centres undefined)	> 30.8
OCC[N+]12CCC(CC1)C(C(O)(c1ccccc1)c1ccccc1)C2 (centres undefined)	> 50.8
O=C(CCCSc1nc2ccccc2[nH]1)NC1CCCCC1	> 47.6
COc1cc(C2NC(=O)NC(C)=C2C(C)=O)ccc1O (centres undefined)	> 41.4
O=C(/C=C/c1ccco1)NC(=S)Nc1ccccc1	17.2 (≈ 63.2 µM)
O=S(=O)(c1cccc(C(F)(F)F)c1)c1ccc(O)cn1	41.1 (≈ 136 µM)
O=C(COC(=O)c1cccs1)NCc1cccs1	40 (≈ 142 µM)
CC(NC(=O)c1ccccc1Br)C1CC2CCC1C2 (centres undefined)	20.6 (≈ 63.9 µM)
CC(=O)Nc1ccc(NC(=S)NC(=O)C2CC2)cc1	32.2 (≈ 116 µM)
Cc1cccc(N2N=C(C(=O)N3Cc4ccccc4CC3C(N)=O)CCC2=O)c1 (centres undefined)	> 58.6
Cc1ccc(C(=O)NC23CC4CC(CC(C4)C2)C3)c(Cl)c1	0.7 (≈ 2.3 µM)
O=C(O)c1cccnc1SC1CC(=O)N(c2ccccc2)C1=O (centres undefined)	> 49.3
CCOC(=O)c1[nH]cnc1C(=O)Nc1ccccc1	11.4 (≈ 44 µM)
O=C(/C=C/c1ccccc1Cl)NCCCn1ccnc1	38.9 (≈ 134 µM)
CCOc1ccc(-c2cn(-c3ccccc3OC)c(=S)[nH]2)cc1	17.7 (≈ 54.2 µM)

Structure (SMILES)	solubility kinetic [µg/mL]
N#Cc1ccc(Oc2c(Cl)cncc2Cl)cc1	23.2 (≈ 87.5 µM)
COC(=O)c1c(NC(=O)c2ccccc2)sc(C(N)=O)c1C	1.8 (≈ 5.65 µM)
O=C(NCCCSc1ccccc1)c1cc(Cl)ccc1O	0.9 (≈ 2.8 µM)
Cl.O=C(NCCCn1ccnc1)c1ccccc1F	> 42.6
O=C(c1cccs1)N1CCN=C1SCc1ccc(Cl)cc1	< 0.4
Cc1ccc(CNC(=O)COC(=O)c2cccnc2Cl)cc1	23.7 (≈ 74.4 µM)
COc1ccc(N2CCN(c3ccc(Cl)nn3)CC2)cc1	> 45.7
O=C(Nc1ccccn1)c1ccc(C(=O)Nc2ccccn2)cc1	0.5 (≈ 1.57 µM)
CCOc1ccc(NC(=O)CN2C(=O)CSC(C)C2=O)cc1 (centres undefined)	> 48.4
O=C(O)c1ccccc1C(=O)N1CCN(c2ncccn2)CC1	> 46.8
CC(C1CC1)N(Cc1ccccc1)C(=O)NC(=O)c1ccccc1 (centres undefined)	46.1 (≈ 143 µM)
O=C(NCc1ccccc1)c1cc2ccc(O)cc2oc1=O	6.3 (≈ 21.3 µM)
Cc1ccc(CC2CC(=O)N(c3nc4ccccc4s3)C2=O)cc1 (centres undefined)	10.3 (≈ 30.6 µM)
O=[N+]([O-])c1ccc(CNc2cccc(Cl)c2)s1	6.3 (≈ 23.4 µM)
Cn1c(SCC(=O)Nc2ccccc2)nc2ccccc2c1=O	3.2 (≈ 9.83 µM)
O=C(Nc1ccc2ccccc2n1)Nc1ccccc1F	< 0.2
COc1ccc(CCN2C(=O)C(C)=C(C)C2=O)cc1OC	> 43.4
COc1ccc2oc(=O)c(C(=O)NCCc3ccc(OC)c(OC)c3)cc2c1	< 0.8
Cc1c2c(nc3ccccc13)CC(C)(C)CC2=O.Cl	36.8
